The molecules below were run against T1, galectin-3 (Homo sapiens, UniProt P17931) (assay: Galectin-3 Activity ELISA assay: inhibition of binding of galectin-3 to immobilized Galβ1-3GlcNAc polymer). Settings: competitive ELISA; Galβ1-3GlcNAc polymer on streptavidin plate; A450 readout; read-out: Galectin-3 Antagonist Activity IC50.
T1 construct: purchased IBL IBATGPO414
Text: An inhibition assay may be used to screen for antagonists of galectin-3. For example, an assay may be performed to characterize the capability of a compound described herein to inhibit interaction of galectin-3 with a Galβ1-3GlcNAc carbohydrate structure. The inhibition assay may be a competitive binding assay, which allows the determination of IC50 values. By way of example, a Galβ1-3GlcNAc polymer may be immobilized onto a matrix; a composition may be added to reduce nonspecific binding; the immobilized Galβ1-3GlcNAc polymer may be contacted with the candidate compound in the presence of galectin-3 group under conditions and for a time sufficient to permit galectin-3 to bind to the immobilized Galβ1-3GlcNAc polymer; the immobilized Galβ1-3GlcNAc polymer may be washed; and the amount of galectin-3 bound to the immobilized Galβ1-3GlcNAc polymer may be detected. Variations of such steps can be readily and routinely accomplished by a person of ordinary skill in the art.
Galectin-3 antagonists were evaluated for their ability to inhibit binding of galectin-3 to a Galβ1-3GlcNAc carbohydrate structure. The detailed protocol was as follows. A 1 μg/mL suspension of a Galβ1-3GlcNAcβ-3Galβ1-4GlcNAcβ-PAA-biotin polymer (Glycotech, catalog number 01-096) was prepared. A 100 μL aliquot of the polymer was added to the wells of a 96-well streptavidin-coated plate (R&D Systems, catalog number CP004). A 100 μL aliquot of 1× Tris Buffered Saline (TBS, Sigma, catalog number T5912-10×) was added to control wells. The polymer was allowed to bind to the streptavidin-coated wells for 1.5 hours at room temperature. The contents of the wells were discarded and 200 μL of 1×TBS containing 1% bovine serum albumin (BSA) was added to each well as a blocking reagent, and the plate was kept at room temperature for 30 minutes. The wells were washed three times with 1×TBS containing 0.1% BSA. A serial dilution of test compounds was prepared in a separate V-bottom plate (Corning, catalog number 3897). A 75 μL aliquot of the highest concentration of the compound to be tested was added to the first well in a column of the V-bottom plate, then 15 μl were serially transferred into 60 μL 1×TBS through the remaining wells in the column to generate a 1 to 5 serial dilution. A 60 μL aliquot of 2 ug/mL galectin-3 (IBL, catalog number IBATGPO414) was added to each well in the V-bottom plate. A 100 μL aliquot of the galectin-3/test compound mixture was transferred from the V-bottom plate into the assay plate containing the Galβ1-3GlcNAc polymer. Four sets of control wells in the assay plate were prepared in duplicate containing 1) both Galβ1-3GlcNAc polymer and galectin-3, 2) neither the polymer nor galectin-3, 3) galectin-3 only, no polymer, or 4) polymer only, no galectin-3. The plate was gently rocked for 1.5 hours at room temperature. The wells were washed four times with TBS/0.1% BSA. A 100 μL aliquot of anti-galectin-3 antibody conjugated to horse radish peroxidase (R&D Systems, from DGAL30 kit) was added to each well and the plate was kept at room temperature for 1 hour. The wells were washed four times with TBS/0.1% BSA. A 100 μL aliquot of TMB substrate solution was added to each well. The TMB substrate solution was prepared by making a 1:1 mixture of TMB Peroxidase Substrate (KPL, catalog number 5120-0048) and Peroxidase Substrate Solution B (KPL, catalog number 5120-0037). The plate was kept at room temperature for 10 to 20 minutes. The color development was stopped by adding 100 μL 10% phosphoric acid (RICCA Chemical Co., catalog number 5850-16). The absorbance at 450 nm (A450) was measured using a FlexStation 3 plate reader (Molecular Devices). Plots of A450 versus test compound concentration and IC50 determinations were made using GraphPad Prism 6.

T1 sequence (P17931 whole entry): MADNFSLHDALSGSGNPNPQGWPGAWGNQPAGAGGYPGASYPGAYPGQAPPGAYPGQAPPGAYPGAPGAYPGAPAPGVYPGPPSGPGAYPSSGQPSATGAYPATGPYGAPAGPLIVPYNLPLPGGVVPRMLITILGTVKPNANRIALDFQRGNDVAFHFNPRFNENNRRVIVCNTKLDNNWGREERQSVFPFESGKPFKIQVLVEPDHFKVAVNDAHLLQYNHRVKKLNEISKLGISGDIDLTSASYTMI

| SMILES | IC50 [µM] |
| --- | --- |
| [2H]C([2H])([2H])OC1C(n2cc(-c3cc(F)cc(F)c3)nn2)[C@@H](O)C(CO)O[C@H]1[C@H](OCc1ccc(Cl)cc1)/C(=N/OC)C([2H])([2H])C([2H])([2H])[2H] (stereo partly shown) [Compound 35] | 6.9 |
| [2H]C([2H])([2H])OC1C(n2cc(-c3cc(F)c(F)c(F)c3)nn2)[C@@H](O)C(CO)O[C@H]1[C@H](OCc1ccc(Cl)cc1)C(C)=NOCC (stereo partly shown) [Compound 36] | 10.3 |
| [2H]C([2H])([2H])OC1C(n2cc(-c3cc(F)c(F)c(F)c3)nn2)[C@@H](O)C(CO)O[C@H]1[C@H](OCc1ccc(Cl)cc1)C(C)=NOCC1CC1 (stereo partly shown) [Compound 37] | 10.6 |
| [2H]C([2H])([2H])OC1C(n2cc(-c3cc(F)c(F)c(F)c3)nn2)[C@@H](O)C(CO)O[C@H]1[C@H](OCc1ccc(Cl)cc1)C(C)=NOCC(C)C (stereo partly shown) [Compound 38] | 16.7 |

Stronger by IC50, values ahead:

| IC50 [µM] | SMILES |
| --- | --- |
| 2.8 | CCC(=NOCC1CC1)[C@@H](OCc1ccc(Cl)cc1)[C@@H]1OC(CO)[C@H](O)C(n2cc(-c3cc(F)c(F)c(F)c3)nn2)C1O (stereo partly shown) [Compound 41] |
| 0.9 | CCON=C(CC)C(OCc1ccc(Cl)cc1)C1OC(CO)C(O)C(n2cc(-c3cc(F)c(F)c(F)c3)nn2)C1O (stereo not shown) [Compound 40] |
| 0.5 | CCC(=NOC)[C@@H](OCc1ccc(Cl)cc1)[C@@H]1OC(CO)[C@H](O)C(n2cc(-c3cc(F)c(F)c(F)c3)nn2)C1O (stereo partly shown) [Compound 34] |

From US20240287121A1, “GALECTIN-3 INHIBITING C-GLYCOSIDE OXIMES” (GLYCOMIMETICS, INC., priority 2021, published 2024)
